In brackets after ≈: the same amount, converted by molar mass. Like-named read-outs stand apart in the source and are kept apart here.
Legend:
Cytotoxicity, MTT assay = type: cell-based
Procedure: (§1) Before removing the frozen cell stocks from liquid nitrogen, culture medium was pre-warmed to 37° C. The frozen tube was then removed from liquid nitrogen and placed into a 37° C. water bath and shaken gently to thaw the cell stock as quickly as possible. A small portion of the pre-warmed culture medium was added to the cell solution. The cell suspension was then centrifuged at 1000 r/min for 3 minutes. The supernatant was discarded and the cells were resuspended in fresh culture medium.
(§2) NIH 3T3 (ATCC CRL-1658) and Hep G2 (ATCC HB-8065) cells were cultured with DMEM+10% FBS in 100 mm dishes. Cells were lifted for subculture or testing when confluence reached ˜60% by treating with 1× trypsin (incubated for 3 min at 37° C.). J774 (ATCC TIB-67) cells were cultured with DMEM+10% FBS in 100 mm dishes. Cells were lifted for subculture or testing when confluence reached ˜80% using a cell scraper. RAW264.7 (ATCC TIB-71) cells were cultured with DMEM+10% heat-inactivated FBS+1% pen/strep in T75 flasks. Cells were lifted for subculture or testing when confluence reached ˜80% using a cell scraper.
(§3) • 1. Cells were lifted and resuspended in culture medium. The number of cells in the cell suspension was determined using an auto-cell counter: 10 μL of the cell suspension was mixed with 10 μL 1× trypan blue (filtered with 0.2 μm PES filter) and the mixture was loaded onto a cell counting slide. Based on the concentration of viable cells, the cell suspension was further diluted to achieve the desired density. • 2. Cells were seeded in 96 well plates by adding 100 μL final cell suspension column-by-column using a multichannel pipette (5000 cells/well for NIH 3T3, 10000 cells/well for Hep G2, J774 and RAW264.7). The outer wells were block with PBS to reduce the effects of evaporation. One column was filled with only culture medium as a blank. Cells were incubated overnight before adding the test articles. • 3. Test articles were dissolved in 1×PBS (or DMSO) to obtain stocks solution. Stock solutions were pre-warmed before use. […] Serial dilutions (2-fold) of the 10× solutions were made in sterile culture tubes by diluting in 1×PBS (8 dilutions to yield 9 test concentrations). 900 μL of culture media was added to each tube to obtain final drug solution containing 10% PBS (or less than 1% DMSO) for each experimental group. • 4. The original culture medium was gently removed from the 96-well plates using a pipette. 100 μL of the test article solutions prepared in Step 3 were added to rows 2-7 of each column to obtain six replicates for each concentration. Plates were then incubated for 24 hours. • 5. MTT solutions were prepared by dissolving commercial MTT powder in 1×PBS to a concentration of 5 mg/mL. After passing through a 0.22 μm PES filter, the MTT solution was divided into 1 mL portions in sterile centrifuge tubes and stored at −20° C. • 6. MTT stock solutions were removed from the freezer to thaw at room temperature. Before adding MTT solutions, cell cultures were visually inspected and imaged using a microscope (to use as a comparison with MTT results). 10 μL of the 5 mg/mL MTT solution was added to each well and the plate was incubated for 4 hours. • 7. After 4 h incubation, the culture medium/MT solution was removed gently using a pipette. 100 μL of DMSO was added to each well using a multichannel pipette. The 96-well plates were analyzed in a plate reader using the following method: shake for 5 minutes, wait for 30 seconds, and measure absorbance at 570 nm. • 8. Data processing: The average of background Abg was calculated from the blank column. All other data was first treated by subtracting Abg. The average A. and standard deviation Se of each experimental group and the average Ac and standard deviation Sc for control group (with pure culture medium incubation) were then calculated. The cell viability was determined as Ae/Ac×100% and corresponding error as Se/Ae×100%. Significant outliers in any experimental or control group were removed. […]

[1] = tested on: Hep G2 (ATCC HB-8065) cells; test: Cytotoxicity, MTT assay; type: cell-based; conditions: Hep G2, MTT, 24 hours incubation
Procedure: as §1, §2, §3

J774 (ATCC TIB-67) cells = test: Cytotoxicity, MTT assay; type: cell-based; conditions: Mus musculus, MTT, 24 hours incubation, read-out: IC50
Procedure: as §1, §2, §3

[2] = tested on: NIH 3T3 (ATCC CRL-1658) cells; test: Cytotoxicity, MTT assay; type: cell-based; conditions: Mus musculus
Procedure: as §1, §2, §3

[3] = tested on: K. aerogenes (ATCC 13048); test: MIC broth microdilution method, Table 3; conditions: Klebsiella aerogenes, ATCC13048
[4] = tested on: S. epidermidis (ATCC 14990); test: MIC broth microdilution method, Table 3; conditions: Staphylococcus epidermidis, ATCC14990
E. coli K12 (ATCC 47076) = test: MIC broth microdilution method, Table 3; conditions: Escherichia coli, ATCC47076
[5] = tested on: A. baumannii 1674627 (MDR); test: MIC against resistant strains, Tables 5a-5d; type: cell-based; conditions: Acinetobacter baumannii, n = 3
Procedure: (§4) Compounds described herein were evaluated for growth inhibition against a variety of bacterial species, including strains that have developed resistance to common antibacterial treatments, according to the procedure described herein, or by analogous procedures known to those skilled in the art. Resistant bacterial strains used for compound testing include methicillin-resistant S. aureus (MRSA), vancomycin resistant Enterococci (VRE) and various multi-drug resistant (MDR) strains commonly associated with hospital-acquired (nosocomial) infections, including, but not limited to A. baumannii, K. pnuemoniae, and E. cloacae.

[6] = tested on: A. baumannii CDC0290 (MDR); test: MIC against resistant strains, Tables 5a-5d; type: cell-based; conditions: Acinetobacter baumannii, n = 3
Procedure: as §4

[7] = tested on: E. cloacae 1744299 (ESBL); test: MIC against resistant strains, Tables 5a-5d; type: cell-based; conditions: Enterobacter cloacae, n = 3
Procedure: as §4

E. coli ATCC25922 (WT) = test: MIC against resistant strains, Tables 5a-5d; type: cell-based; conditions: Escherichia coli, n = 3
Procedure: as §4

E. faecium 1674620 (VRE) = test: MIC against resistant strains, Tables 5a-5d; type: cell-based; conditions: Enterococcus faecium, n = 3
Procedure: as §4

[8] = tested on: K. pneumoniae ATCC BAA-2473 (MDR); test: MIC against resistant strains, Tables 5a-5d; type: cell-based; conditions: Klebsiella pneumoniae, ATCCBAA2473, n = 3
Procedure: as §4

[9] = tested on: K. pneumoniae CDC0010 (MDR); test: MIC against resistant strains, Tables 5a-5d; type: cell-based; conditions: Klebsiella pneumoniae, n = 3
Procedure: as §4

[10] = tested on: P. aeruginosa 1674623 (MDR); test: MIC against resistant strains, Tables 5a-5d; type: cell-based; conditions: Pseudomonas aeruginosa, n = 3
Procedure: as §4

[11] = tested on: P. aeruginosa CDC0248 (MDR); test: MIC against resistant strains, Tables 5a-5d; type: cell-based; conditions: Pseudomonas aeruginosa, n = 3
Procedure: as §4

[12] = tested on: S. aureus ATCC 33591 (MRSA); test: MIC against resistant strains, Tables 5a-5d; type: cell-based; conditions: Staphylococcus aureus, n = 3
Procedure: as §4

[13] = tested on: S. aureus ATCC BAA-1717 (MRSA); test: MIC against resistant strains, Tables 5a-5d; type: cell-based; conditions: Staphylococcus aureus, n = 3
Procedure: as §4

[14] = Homo sapiens, HepG2, 24 h, read-out: IC50

Compound	IC50 [1, 14] [µg/mL]	MIC [4] [µg/mL]	MIC (E. coli K12 (ATCC 47076)) [µg/mL]	MIC [5] [µg/mL]	MIC [6] [µg/mL]	MIC [7] [µg/mL]	MIC (E. coli ATCC25922 (WT)) [µg/mL]	MIC (E. faecium 1674620 (VRE)) [µg/mL]	MIC [8] [µg/mL]	MIC [9] [µg/mL]	MIC [10] [µg/mL]	MIC [11] [µg/mL]	MIC [12] [µg/mL]	MIC [13] [µg/mL]	further results
CO/N=C(\C(=O)N[C@@H]1C(=O)N2C(C(=O)[O-])=C(C[n+]3cccc4c3CCC4)CS[C@H]12)c1csc(N)n1 [Cefpirome, reference compound]	> 128	1 (≈ 1.94 µM)	0.0625 (≈ 0.121 µM)	–	–	–	–	–	–	–	–	–	–	–	viability at 24 h (Cytotoxicity, MTT assay; human, Hep G2 (ATCC HB-8065) cells, Hep G2, at the concentration given as IC50 bound, read-out: cell viability at the highest or lowest test concentration): 101%; viability at 24 h (Cytotoxicity, MTT assay; mouse, J774 (ATCC TIB-67) cells, at the concentration given as IC50 bound, read-out: cell viability at the highest or lowest test concentration): 107%; viability at 24 h (Cytotoxicity, MTT assay; mouse, NIH 3T3 (ATCC CRL-1658) cells, NIH 3T3, at the concentration given as IC50 bound, read-out: cell viability at the highest or lowest test concentration): 81%; IC50 (J774 (ATCC TIB-67) cells): > 128 µg/mL; IC50 ([2]; NIH3T3, NIH 3T3, MTT, 24 hours incubation, read-out: IC50): > 128 µg/mL; MIC [3]: 0.25 µg/mL (≈ 0.486 µM)
CCCCCC[N+](C)(C)CCCOc1cc(/C=C/c2ccc(/C=C/c3cc(OCCC[N+](C)(C)CCCCCC)cc(OCCC[N+](C)(C)CCCCCC)c3)cc2)cc(OCCC[N+](C)(C)CCCCCC)c1 [Formula BB]	15	–	8	2	2	2	2	0.25	2	2	16	32	2	1	viability at 24 h (Cytotoxicity, MTT assay; human, Hep G2 (ATCC HB-8065) cells, Hep G2, at concentrations efficacious against bacterial species (0.25-4 μg/mL), read-out: cell viability): ~90%; IC50 [1]: 15.1 µg/mL
CCCC[N+](C)(C)CCOc1cc(/C=C/c2ccc(/C=C/c3cc(OCC[N+](C)(C)CCCC)cc(OCC[N+](C)(C)CCCC)c3)cc2)cc(OCC[N+](C)(C)CCCC)c1.[I-].[I-].[I-].[I-] [Formula G]	889	–	4	32	32	4	1	1	4	16	64	64	1	2	–
C[N+]1(CCCCCCOc2cc(/C=C/c3cc(OCCCCCC[N+]4(C)CCCCC4)cc(OCCCCCC[N+]4(C)CCCCC4)c3)cc(OCCCCCC[N+]3(C)CCCCC3)c2)CCCCC1.[I-].[I-].[I-].[I-] [Formula N]	–	2	128	–	–	–	–	–	–	–	–	–	–	–	IC50 ([2]; NIH3T3, 24 h): 124 µg/mL
CC[N+](C)(C)CCCCOc1cc(/C=C/c2ccc(/C=C/c3cc(OCCCC[N+](C)(C)CC)cc(OCCCC[N+](C)(C)CC)c3)cc2)cc(OCCCC[N+](C)(C)CC)c1.[I-].[I-].[I-].[I-] [Formula P]	–	–	16	64	64	8	8	4	16	32	> 64	> 64	1	2	–

— patent US11713318B2, “Short conjugated oligoelectrolytes and uses thereof” (The Regents Of The University Of California, priority 2018, dated 2023)
